Data set [1] relates to patients. The settings on record: injection, alone or combined with pheniolamine; cited from earlier work.
In data set [2] the test system is human male. In kind it is in vivo. The method, then: The peptides described herein were prepared by sterile methods to a final concentration of 10 mg of peptide per ml of physiological salina. In addition to a full dose providing 10 mg of the peptide to the individual, doses of 0.1 to 0.3 ml (providing 1 mg to 3 mg of the peptide to each individual) of this stock material were also injected into volunteers, with a dose of 0.1 to 0.2 ml being the most often used dosage.
A dose of 3.75 mg given to volunteers produced a long lasting erection of 4 to 6 hour duration. […] In some, this discomfort was considerable. […] Accordingly, although dosages of from about 1.0 mg to about 10.0 mg show the desired activity according to the present invention, it is preferred that the lower ranges of dosage which bring about the desired erection without undesirable side effects be used. Accordingly, it is preferred that dosages of about 1.5 mg to 2.5 mg of peptide be provided when the route of administration is subcutaneous or intramuscular. With other routes of administration, this range may require adjustment, however, it is still preferred that the lower range of adjusted effective dosages for the selected route of administration be used.
Another of the peptides according to the present invention (Ac-Nle-Asp-His-D-Phe-Cl-Arg-Trp-Lys-Gly-NH2) induced an erection within 60 minutes following administration at a concentration of 2.5 mg. This erection lasted, intermittently, for up to six hours.

Data set [3] deals with castrated dog. The data set is described as follows: Erectile response after injection into the castrated dog. The format is in vivo.

The text below walks through data of patent US20030036514A1, “Compositions and methods for the diagnosis and treatment of psychogenic erectile dysfunction” (priority 2001, published 2003).

Where two headings read alike, the source gives them in different places. dPhe(Cl) = D-phenylalanine carrying a chlorine on the ring; Nle = CCCC[C@H](N)C(=O)O

Consider `COc1ccc(Cc2nccc3cc(OC)c(OC)cc23)cc1OC` [papaverine], for which, in data set [1], the “patients in whom an erection is induced” value is recorded as “about 70%”.

Regarding “Ac-Nle-Asp-His-D-Phe-Cl-Arg-Trp-Lys-NH2 [Example II]”, the erectile activity result in data set [2] (1.25 mg (smallest dose) subcutaneously, human volunteers) is on record as “generally no erectile activity was noted”. For the same compound, the stomach discomfort entry in data set [2] (human, in vivo) is given as “stomach discomfort was noted”. For the same compound, the erectile response result in data set [3] (castrated dog first primed with testosterone) is “did so”; in data set [3] (castrated dog, not primed) it was “caused no erectile response”.

On to “Ac-Nle-Asp-His-D-Phe-Cl-Arg-Trp-Lys-Gly-NH2 ({Ac-Nle-Asp-H2N-dPhe(Cl)}-RWKG-NH2)”, for which the “time to erection following administration” value in data set [2] (1.25 mg, compared with 2.5 mg, human) was “took longer to initially occur”; in data set [2] (2.5 mg, human), at most 60 min. Moreover, the “duration of erection (sustained intermittently)” value in data set [2] (1.25 mg, human) was “up to 6 hours”.

“Ac-Ser-Tyr-Ser-Nle-Glu-His-D-Phe-Cl-Arg-Trp-Gly-Lys-Pro-Val-NH2 [reference compound]”: the erectile response result in data set [2] (highest dose administered (about 20 mg), human) is reported as “did not cause an erectile response”.
